Values of other authors in CN106749267A, “新的表皮生长因子受体抑制剂及其应用” (Nanjing Sanhome Pharmaceutical Co Ltd, priority 2015, dated 2017).
Like-named read-outs stand apart in the source and are kept apart here.

SMILES	blood glucose increase side effect (in vivo)	blood glucose increase side effect (literature report, hyperglycemia from EGFR TKIs)
C=CC(=O)Nc1cc(Nc2nccc(-c3cn(C)c4ccccc34)n2)c(OC)cc1N(C)CCN(C)C [AZD9291]	一定程度的升高	–
C=CC(=O)Nc1cccc(Nc2nc(Nc3ccc(N4CCN(C(C)=O)CC4)cc3OC)ncc2C(F)(F)F)c1 [Rociletinib]	–	一定程度的升高
